Data set [1] has as its system Liver. Kind of data set: Biodistribution in Sprague-Dawley rat liver at 24 hrs by gamma counting analysis. The data set is classed as ADME, organism-based. The following applies: in vivo.
Another data set deals with Spleen. As to the kind of experiment: Biodistribution in Sprague-Dawley rat spleen at 24 hrs by gamma counting analysis. The data set is classed as ADME, organism-based. As to conditions: in vivo; call rule not given here.
A short description of data set [2]: Ratio of drug level in heart to lung in Sprague-Dawley rat measured at 2 hrs. The following applies: in vivo.
Data set [3] has as its system Lung. As to the kind of experiment: Biodistribution in Sprague-Dawley rat lung at 2 hrs by gamma counting analysis. The data set is classed as ADME, organism-based. The following applies: in vivo.
In data set [4] the test system is Heart. As to the kind of experiment: Biodistribution in Sprague-Dawley rat heart at 24 hrs by gamma counting analysis. The data set is classed as ADME, organism-based. The following applies: in vivo.
Data set [5] has as its system Liver. Kind of data set: Biodistribution in Sprague-Dawley rat liver at 2 hrs by gamma counting analysis. The data set is classed as ADME, organism-based. The following applies: in vivo.
Data set [6] has as its system Blood. As to the kind of experiment: Biodistribution in Sprague-Dawley rat blood at 2 hrs by gamma counting analysis. The data set is classed as ADME, organism-based. As to conditions: in vivo.
The subject of the next data set is Muscle tissue. As to the kind of experiment: Biodistribution in Sprague-Dawley rat muscle at 24 hrs by gamma counting analysis. The data set is classed as ADME, organism-based. As to conditions: in vivo.
Data set [7] concerns Heart. As to the kind of experiment: Biodistribution in Sprague-Dawley rat heart at 2 hrs by gamma counting analysis. The data set is classed as ADME, organism-based. As to conditions: in vivo.
The nature of data set [8]: Ratio of drug level in heart to blood in Sprague-Dawley rat measured at 2 hrs. The data set is classed as ADME.
Data set [9] has as its system Lung. Kind of data set: Biodistribution in Sprague-Dawley rat lung at 24 hrs by gamma counting analysis. As to conditions: in vivo. The data set is classed as ADME, organism-based.
In data set [10] the test system is Thyroid gland. Kind of data set: Biodistribution in Sprague-Dawley rat thyroid assessed per organ at 2 hrs by gamma counting analysis. The data set is classed as ADME, organism-based. As to conditions: in vivo.
In data set [11] the test system is Thyroid gland. As to the kind of experiment: Biodistribution in Sprague-Dawley rat thyroid assessed per organ at 24 hrs by gamma counting analysis. The following applies: in vivo. The data set is classed as ADME, organism-based.
Data set [12] has as its system Brain. Kind of data set: Biodistribution in Sprague-Dawley rat brain at 2 hrs by gamma counting analysis. The data set is classed as ADME, organism-based. As to conditions: in vivo.
A further data set relates to Kidney. As to the kind of experiment: Biodistribution in Sprague-Dawley rat kidney at 24 hrs by gamma counting analysis. The data set is classed as ADME, organism-based. The following applies: in vivo.
A short description of data set [13]: Ratio of drug level in heart to liver in Sprague-Dawley rat measured at 2 hrs. As to conditions: in vivo.
Data set [14] has as its system Brain. Kind of data set: Biodistribution in Sprague-Dawley rat brain at 24 hrs by gamma counting analysis. The data set is classed as ADME, organism-based. The following applies: in vivo.
Data set [15] relates to Blood. As to the kind of experiment: Biodistribution in Sprague-Dawley rat blood at 24 hrs by gamma counting analysis. The data set is classed as ADME, organism-based. The following applies: in vivo.

The structures appear in SMILES notation.

Regarding `COc1cc2c(cc1OC)[C@@H]1C(=O)c3ccc4c(c3O[C@@H]1CO2)C[C@H](/C(C)=C\[125I])O4`, the Drug uptake entry is listed as “Active” in the data set on Liver [1]; “Active” in the data set with Spleen; 0.33 %Idose/kg in the data set with Lung [3]; “Active” in the data set on Heart [4]; 1.17 %Idose/kg with Liver [5]; 0.14 %Idose/kg in the data set with Blood [6]. Also, the Drug uptake result in the data set with Muscle tissue is listed as “Active”; in the data set with Heart [7], 2.96 %Idose/kg; in the data set with Lung [9] it was “Active”; in the data set with Thyroid gland [10] it was 0.34 %ID; in the data set with Thyroid gland [11] it was 3.78 %ID; in the data set with Brain [12], 0.34 %Idose/kg. In addition, the Drug uptake result in the data set with Kidney was “Active”; in the data set with Brain [14], “Active”; in the data set with Blood [15], 0.06 % ID/g. Moreover, the results for the Ratio in data set [2] and in data set [13] were 9.32 and 2.57, respectively. In addition, the Kp at 2 h in [8] stood at 22.4.

As usually defined, the Kp is the ratio of the level in a tissue or fluid to that in plasma or blood.

(Values after ChEMBL document CHEMBL2390945, “Synthesis and characterization of 123I-CMICE-013: a potential SPECT myocardial perfusion imaging agent” (Bioorg Med Chem, 2013).)
